Laboratory results taken from US5744479A, “Thienopyridine compounds which have useful pharmaceutical activity” (Takeda Chemical Industries, Ltd., priority 1995, dated 1998).
Counter-ions that a name gives are not always drawn.

These compounds were tested against T1, human GnRH receptor (Homo sapiens, UniProt P30968) (assay: Inhibition of ^125 I-leuprorelin binding to membrane fraction of CHO cells expressing human GnRH receptors). Conditions: CHO cell membrane fraction, 25° C., 60 minutes, concentration of PMB=50% by Hill plot, read-out: IC50 value human GnRH receptor (^125 I-leuprorelin binding inhibitory rate).
T1 construct: expressed in transfected cells; host or cells: CHO (Chinese Hamster Ovary) cells, membrane fraction
T1 sequence (P30968 1-328): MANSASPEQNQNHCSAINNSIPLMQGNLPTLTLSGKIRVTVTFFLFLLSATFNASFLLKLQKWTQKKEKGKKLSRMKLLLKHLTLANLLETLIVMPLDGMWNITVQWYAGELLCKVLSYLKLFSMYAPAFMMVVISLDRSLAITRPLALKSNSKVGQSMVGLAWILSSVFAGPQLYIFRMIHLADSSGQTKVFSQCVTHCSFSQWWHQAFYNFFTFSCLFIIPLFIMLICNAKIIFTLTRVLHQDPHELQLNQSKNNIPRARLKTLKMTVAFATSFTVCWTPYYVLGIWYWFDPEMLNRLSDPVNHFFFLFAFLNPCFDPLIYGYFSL
Compound `CC(C)Oc1cn(Cc2c(F)cccc2F)c2sc(-c3ccc(NC(=O)C(C)C)cc3)c(CN(C)Cc3ccccc3)c2c1=O` [Example 8(4), 4,7-dihydro-2-(4-isobutyrylaminophenyl)-3-(N-benzyl-N-methylaminomethyl)-5-isopropoxy-7-(2,6-difluorobenzyl)-4-oxothieno[2,3-b]pyridine] has an IC50 of 1 nM.
`CC(C)C(=O)Nc1ccc(-c2sc3c(c2CN(C)Cc2ccccc2)c(=O)c(OS(=O)(=O)C(C)C)cn3Cc2c(F)cccc2F)cc1` [Example 10, 4,7-dihydro-2-(4-isobutyrylaminophenyl)-3-(N-benzyl-N-methylaminomethyl)-5-isopropylsulfonyloxy-7-(2,6-difluorobenzyl)-4-oxothieno[2,3-b]pyridine hydrochloride] gave an IC50 of 0.3 nM.
Work on `CC(C)C(=O)Nc1ccc(-c2sc3c(c2CN(C)Cc2ccccc2)c(=O)c(OC(=O)C(C)C)cn3Cc2c(F)cccc2F)cc1` [Example 11, 4,7-dihydro-2-(4-isobutyrylaminophenyl)-3-(N-benzyl-N-methylaminomethyl)-5-isobutyryloxy-7-(2,6-difluorobenzyl)-4-oxothieno[2,3-b]pyridine hydrochloride] yielded an IC50 of 2 nM.
In the case of `CCOC(=O)COc1cn(Cc2c(F)cccc2F)c2sc(-c3ccc(NC(=O)C(C)C)cc3)c(CN(C)Cc3ccccc3)c2c1=O` [Example 12, 4,7-dihydro-2-(4-isobutyrylaminophenyl)-3-(N-benzyl-N-methylaminomethyl)-5-ethoxycarbonylmethoxy-7-(2,6-difluorobenzyl)-4-oxothieno[2,3-b]pyridine], the IC50 is reported as 3 nM.
